Experimental findings from BindingDB's records for doi:10.1007/s00210-004-0951-4 (Vernalis Research, 2004) are described below.

Usually Ki stands for the equilibrium dissociation constant of an inhibitor or competing ligand from its target. A lower Ki goes with higher affinity.

Several values for one entry are separate records, joined by “and”; a condition that tells them apart may be missing. Equal values may be shown once. Where a name gives a salt, the structure may show the parent alone.

The target of assay [1] is 5-hydroxytryptamine receptor 2B (Homo sapiens, UniProt P41595).
5-hydroxytryptamine receptor 2B, sequence (P41595 whole entry): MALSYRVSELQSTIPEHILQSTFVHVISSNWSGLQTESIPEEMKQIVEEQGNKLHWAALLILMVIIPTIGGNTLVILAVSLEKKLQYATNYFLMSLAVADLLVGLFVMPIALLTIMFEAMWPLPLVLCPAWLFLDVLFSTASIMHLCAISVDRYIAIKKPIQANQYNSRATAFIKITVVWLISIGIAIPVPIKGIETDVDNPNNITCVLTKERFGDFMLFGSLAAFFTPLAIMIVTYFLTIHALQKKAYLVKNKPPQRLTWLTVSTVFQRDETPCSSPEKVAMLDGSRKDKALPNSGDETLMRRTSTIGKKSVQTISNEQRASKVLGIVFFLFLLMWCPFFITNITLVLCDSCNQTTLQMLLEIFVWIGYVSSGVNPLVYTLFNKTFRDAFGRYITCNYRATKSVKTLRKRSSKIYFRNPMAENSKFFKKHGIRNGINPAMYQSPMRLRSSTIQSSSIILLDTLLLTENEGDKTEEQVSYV
The target of assay [2] is T1, 5-hydroxytryptamine receptor 2C (Homo sapiens, UniProt P28335).
T1 sequence (P28335 whole entry): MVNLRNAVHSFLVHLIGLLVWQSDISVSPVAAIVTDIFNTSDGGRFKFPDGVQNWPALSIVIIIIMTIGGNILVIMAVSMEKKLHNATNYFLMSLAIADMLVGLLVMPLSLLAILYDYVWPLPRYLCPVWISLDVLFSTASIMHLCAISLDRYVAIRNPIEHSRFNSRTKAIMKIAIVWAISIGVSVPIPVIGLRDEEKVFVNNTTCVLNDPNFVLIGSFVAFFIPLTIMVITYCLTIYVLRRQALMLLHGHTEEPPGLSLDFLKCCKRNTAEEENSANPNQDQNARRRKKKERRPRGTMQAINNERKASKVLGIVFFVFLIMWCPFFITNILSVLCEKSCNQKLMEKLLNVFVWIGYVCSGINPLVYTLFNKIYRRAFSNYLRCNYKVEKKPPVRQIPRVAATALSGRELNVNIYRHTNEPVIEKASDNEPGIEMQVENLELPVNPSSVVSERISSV

`CCCN(CCC)C1CCc2cccc(O)c2C1` (stereo not drawn) gave an inhibitory constant (Ki) in assay [1] of 4070 nM. For the compound `Cc1nc2sccn2c(=O)c1CCN1CCC(=C(c2ccc(F)cc2)c2ccc(F)cc2)CC1`, the values for the inhibition constant (Ki) in assay [2] and in assay [1] were 6.61 nM and 2.14 nM, respectively. Consider `CC[C@@H](CO)NC(=O)[C@@H]1C=C2c3cccc4c3c(cn4C)C[C@H]2N(C)C1`, for which the inhibition constant Ki in assay [2] was 4.47 nM.

Regarding `Cn1ccc2cc3c(cc21)CCN3C(=O)Nc1cccnc1`, in assay [1], affinity was put at a Ki of 22.4 nM.

With `CSc1cc2c(cc1C(F)(F)F)N(C(=O)Nc1cccnc1)CC2`, the Ki was determined as 2.19 nM in assay [2] and 2.45 nM in assay [1]. `C[C@H](N)CN1CCc2ccc(Br)cc21`: the Ki in assay [2] was 5.62 nM; in assay [1] it was 30.2 nM. For `NCCc1c[nH]c2ccccc12` [1H-indole-3-ethanamine] the same measures were 2340 nM and 102 nM. Compound `COc1cc(CC(C)N)c(OC)cc1Br` (stereo not drawn) [2-(4-Bromo-2,5-dimethoxy-phenyl)-1-methyl-ethylamine((-)-DOB)] returned a Ki in assay [1] of 43.6 nM. This lies in the double-digit nanomolar range. For `FC(F)(F)c1ccc(N2CCNCC2)nc1Cl` [2-Chloro-3-(trifluoromethyl)-6-(1-piperazinyl)pyridine], the Ki in assay [2] came to 14.8 nM; in assay [1], 91.2 nM. As to `c1ccc2nc(N3CCNCC3)ccc2c1` [2-Piperazin-1-yl-quinoline (Quipazine)], the inhibitory constant (Ki) in assay [2] amounted to 53.7 nM; in assay [1] it was 85.1 nM.

For the compound `Cc1nc(-c2ccc(-c3ccc(C(=O)N4CCc5cc6c(cc54)C4(CCN(C)CC4)CO6)cc3)c(C)c2)no1` [4-[2-methyl-4-(5-methyl-1,2,4-oxadiazol-3-yl)phenyl]phenyl-1'-methylspiro[3,5,6,7-tetrahydro-2H-furo[2,3-f]indole-3,4'-(hexahydropyridine)]-5-ylmethanone], the Ki in assay [2] was 2000 nM; in assay [1] it was 1350 nM. With `Cn1cc(CCN)c2cc(O)ccc21` [5-HT,omega-N-Me], the Ki in assay [2] amounted to 2.69 nM; in assay [1], 6.92 nM. In turn, `O=C(CCCN1CCC2(CC1)C(=O)NCN2c1ccccc1)c1ccc(F)cc1` [8-[4-(4-fluorophenyl)-4-oxidanylidene-butyl]-1-phenyl-1,3,8-triazaspiro[4.5]decan-4-one] returned an inhibitory constant (Ki) in assay [2] of 603 nM. Take `CN1CC(C(=O)NC2(C)OC3(O)C4CCCN4C(=O)C(Cc4ccccc4)N3C2=O)C=C2c3cccc4[nH]cc(c34)CC21` (stereo not drawn) [CAS_113-15-5]: the Ki in assay [2] was 1.91 nM; in assay [1] it was 1.29 nM. Compound `CN1CC(NS(=O)(=O)N(C)C)CC2c3cccc4c3c(cn4C)CC21` (stereo not drawn) [CAS_64795-35-3] yielded a Ki in assay [1] of 3.47 nM. Regarding `CC(C)CC(N(C)C)C1(c2ccc(Cl)cc2)CCC1` (stereo not drawn) [CAS_106650-56-0], the inhibition constant Ki in assay [2] was greater than 10000 nM. Regarding `CN1CCN(c2nc3cc(C(F)(F)F)ccc3n3cccc23)CC1` [CAS_109028-10-6], the inhibitory constant (Ki) in assay [1] is 871 nM. Consider `Cc1cc2c(cc1Cl)N(C(=O)Nc1ccc(Oc3cccnc3C)nc1)CC2` [CAS_181632-25-7], for which the results for the inhibition constant Ki in assay [2] and in assay [1] were 7.08 nM and 145 nM, respectively. In the case of `Cc1cc(NC(=O)Nc2ccc3c(ccn3C)c2)sn1` [CAS_3277600], in assay [1], the affinity, expressed as Ki, was 126 nM. As for `Clc1cncc(N2CCNCC2)n1` [L-630,571], the Ki in assay [2] stood at 97.7 nM; in assay [1], 617 nM. For `OC(c1ccccc1)C1CCN(CCc2ccccc2)CC1` (stereo not drawn) [MDL-11939], the Ki in assay [2] was found to be 263 nM; in assay [1], 3310 nM. For `COc1cc(OC)c(C(=O)CCCCN2CCC3(CC2)NC(=O)NC3=O)cc1NS(=O)(=O)c1ccc(C(F)(F)F)cc1` [N-[5-[5-(2,4-Dioxo-1,3,8-triazaspiro[4.5]decan-8-yl)-1-oxopentyl]-2,4-dimethoxyphenyl]-4-(trifluoromethyl)benzenesulfonamide], the inhibition constant (Ki) in assay [2] is 5.01 nM; in assay [1], 2880 nM. Regarding `CCC(CO)NC(=O)C1C=C2c3cccc4[nH]cc(c34)CC2N(C)C1` (stereo not drawn) [NSC_8226], the Ki in assay [2] turned out to be 4.57 nM; in assay [1] it was 0.46 nM. Regarding `CCCN1CCCC2Cc3[nH]ncc3CC21` (stereo not drawn) [NSC_55397], the Ki in assay [2] stood at 3310 nM; in assay [1], 302 nM. In turn, `O=C1NCN(c2ccccc2)C12CCN(CCCOc1ccc(F)cc1)CC2` [NSC_77445] showed a Ki in assay [2] of 1550 nM. Consider `CC(C)CC(N)C1(c2ccc(Cl)cc2)CCC1` (stereo not drawn) [NSC_134771], for which the inhibitory constant (Ki) in assay [2] and in assay [1] was greater than 10000 nM in each case. As to `CC(N)Cn1ccc2cc(F)c(Cl)cc21` (stereo not drawn) [NSC_3045226], the Ki in assay [2] was 6.03 nM; in assay [1], 5.37 nM. The compound `CC(N)Cc1c[nH]c2ccc(OCc3cccs3)cc12` (stereo not drawn) [NSC_5311036] gave a Ki in assay [2] of 77.6 nM. `C[C@H](N)Cc1cccc(C(F)(F)F)c1` [Norfenfluramine (+)]: the inhibition constant Ki in assay [2] was found to be 51.3 nM; in assay [1], 100 nM. For `COc1ccc2c(c1O[C@H]1CCNC1)CCC2` [ORG-37684], in that order: 7.59 nM and 42.7 nM.

Take `CC(C)c1cc(-c2ccc(F)c3ccccc23)nc(N)n1` [RS-127445]: the inhibition constant Ki in assay [2] was 468 nM; in assay [1], 1.07 nM. For `CN1CC[C@@H]2CN3CCc4cccc(c43)[C@@H]2C1` [SDZ SER 082 FUMARATE] the same measures were 7.59 nM and 204 nM.

Turning to `FC(F)(F)c1cccc(N2CCNCC2)c1` [TFMPP], in assay [1], the affinity corresponds to a Ki of 58.9 nM.

In turn, `NCCc1c[nH]c2ccc(C(N)=O)cc12` [[3H]-5-carboxamidotryptamine] yielded an inhibition constant (Ki) in assay [1] of 186 nM. This Ki lies about 3.2-fold higher than the previous one. As for `COc1cc(CC(C)N)c(OC)cc1I` (stereo not drawn) [[125I]2,5-dimethoxy-4-iodoamphetamine], the Ki in assay [2] was 8.32 nM and 5.37 nM; in assay [1], 28.2 nM and 53.7 nM. The compound `CSc1ccc2c(c1)C(N1CCN(C)CC1)Cc1ccccc1S2` (stereo not drawn) [methanesulfonic acid;1-methyl-4-(3-methylsulfanyl-5,6-dihydrobenzo[b][1]benzothiepin-5-yl)piperazine] showed a Ki in assay [2] of 4.47 nM.
